Measured values taken from patent US20200237711A1, “Compositions for Treating and/or Preventing Cancer” (Boston Biomedical, Inc., priority 2017, published 2020).

Legend:
[1] = Metabolism measurement of 2-acetylnaphtho[2,3-b]furan-4,9-dione in human liver cytosol fractions; type: in vitro ADME; settings: [14C]-labeled compound 0.5 μmol/L, human liver cytosol 0.1 mg/mL, 37° C. (FIG. 7)
Description: A reaction solution obtained by dissolving a human liver cytosol (0.1 mg/mL) and NADPH (1 mmol/L) in a phosphate buffer solution was prepared. Into the reaction solution, [^14C]-labeled labeled 2-acetylnaphtho[2,3-b]furan-4,9-dione was added such that the dione concentration is 0.5 μmol/L, and thereby the reaction was started. After incubation at 37° C. for a given time, 0.1% formic acid-containing acetonitrile was added to terminate the reaction, and the mixture was centrifuged. After the supernatant was evaporated to dryness under a stream nitrogen gas, re-dissolving solvent [10 mmol/L ammonium acetate:acetonitrile, 9:1 (v/v)] was used to re-dissolve it, and then Radio-HPLC was used to measure radioactivity.

A549 cells [2] = assay: Cytotoxic effect (cell survival rate, Prest Blue), A549; type: cell-based, human; settings: single agent treatment with 1.3 μmol/L, 6 hours (FIG. 12)
Description: (§1) A549 cells or H460 cells were seeded onto a 96-well culture plate (Corning) at 2×10^4/well, and then cultured at 37° C. under 5% carbon dioxide atmosphere in an incubator for 48 hours. […] After which, they were cultured in the presence or absence of a test compound (30 μmol/L of flufenamic acid, 100 μmol/L of flufenamic acid, or 100 μmol/L of mefenamic acid as a final concentration) for 6 hours, Prest Blue (Life Technologies) was added, and then incubated for 1 to 2 hours. After the incubation, absorbance at 570 nm was measured to evaluate the cytotoxicity. Absorbance of a well to which a cell had not been added (Ablank) is defined as the background, the cell survival rate was calculated using the following formula to divide a value obtained by multiplying 100 by a value obtained by subtracting the background absorbance from the absorbance of each well (Asample), by a value obtained by subtracting Ablank from the value (Acontrol) of a well in which a cell with no treatment with 2-acetylnaphtho[2,3-b]furan-4,9-dione or a metabolic inhibitor was contained.
(§2) Cell survival rate (%)=(Asample−Ablank)×100/(Acontrol−Ablank)

H460 cells [3] = assay: Cytotoxic effect (cell survival rate, Prest Blue), H460; type: cell-based, human; settings: single agent treatment with 1.3 μmol/L, 6 hours (FIG. 12)
Description: as §1, §2

[4] = system: metabolism of 2-acetylnaphtho[2,3-b]furan-4,9-dione in human liver cytosol; assay: Screening for an inhibitor of a metabolic enzyme (human liver cytosol, LC-MS/MS); type: biochemical; settings: test drug 10 μmol/L, substrate 0.5 μmol/L, 37° C., 5 minutes (FIG. 9)
Description: To a reaction solution obtained by dissolving a human liver cytosol (0.1 mg/mL) and NADPH (1 mmol/L) in a phosphate buffer solution, a test drug (10 μmol/L) was added. Then, 2-acetylnaphtho[2,3-b]furan-4,9-dione was added to be 0.5 μmol/L and thereby the reaction was started. After incubation at 37° C. for 5 minutes, 50 nmol/L phenytoin solution, which had been dissolved in 0.1% formic acid-containing acetonitrile, was added and the reaction was terminated. After centrifugation, the resulting supernatant was measured using LC-MS/MS to quantify the residual amount of 2-acetylnaphtho[2,3-b]furan-4,9-dione, and the inhibition intensity of the test drugs was evaluated by comparison with the control group.

H460 cells [5] = assay: Intracellular concentration of 2-acetylnaphtho[2,3-b]furan-4,9-dione with a metabolic inhibitor, H460; type: cell-based, human; settings: 1.0 μmol/L dione with 30 or 100 μmol/L inhibitor, 2 hours (FIG. 11)
Description: (§3) A549 cells or H460 cells were seeded onto a 96-well culture plate (made by Corning Inc.) at 2×10^4/well, and then cultured at 37° C. under 5% carbon dioxide atmosphere in an incubator for 48 hours. After which, they were cultured for 2 hours with 2-acetylnaphtho[2,3-b]furan-4,9-dione in a final concentration of 1.0 μmol/L and in the presence or absence of 30 μmol/L or 100 μmol/L of mefenamic acid or flufenamic acid, and then washed with PBS. After that, 80% methanol was added to each well to obtain a cell lysate. The cell lysate was analyzed using LC-MS/MS to determine the intracellular concentration of 2-acetylnaphtho[2,3-b]furan-4,9-dione.

A549 cells [6] = assay: Intracellular concentration of 2-acetylnaphtho[2,3-b]furan-4,9-dione with a metabolic inhibitor, A549; type: cell-based, human; settings: 1.0 μmol/L dione with 30 or 100 μmol/L inhibitor, 2 hours (FIG. 11)
Description: as §3

[7] = system: metabolism of 2-acetylnaphtho[2,3-b]furan-4,9-dione in human liver cytosol (AKR and CR); assay: Identification of a metabolic enzyme of 2-acetylnaphtho[2,3-b]furan-4,9-dione (CR/AKR inhibitors in human liver cytosol); type: biochemical; settings: AKR inhibitor 1.0 μmol/L or 10 μmol/L, 5 minutes (FIG. 8)
Description: To a reaction solution obtained by dissolving a human liver cytosol (0.1 mg/mL) and NADPH (1 mmol/L) in a phosphate buffer solution, quercitrin (10 μmol/L or 100 μmol/L), which is a CR inhibitor, and phenolphthalein or medroxyprogesterone 17-acetate (1.0 μmol/L or 10 μmol/L), which is an AKR inhibitor, were added. Further, [^14C]-labeled 2-acetylnaphtho[2,3-b]furan-4,9-dione was added to the reaction solution such that the dione concentration is 0.5 μmol/L. After incubation at 37° C. for 5 minutes, Radio-HPLC was used to measure radioactivity.

A549 cells [8] = assay: Anti-tumor effect in A549 tumor-bearing mice (tumor volume); type: in vivo, mouse; settings: tumor volume (FIG. 15)
Description: A549 cells of 5×10^6 per individual were transplanted to a right belly part of a 5 week aged mouse (BALB/cAnNCrlCrlj, male, Charles River Laboratories Japan, Inc.). After one week, the following administration solution (1), (2), (3), (4) or (5) was orally administered in a single time. (1) 100 mg/kg of mefenamic acid (2) 30 mg/kg of 2-acetylnaphtho[2,3-b]furan-4,9-dione (3) 100 mg/kg of 2-acetylnaphtho[2,3-b]furan-4,9-dione (4) 30 mg/kg of 2-acetylnaphtho[2,3-b]furan-4,9-dione and 100 mg/kg of mefenamic acid (5) 100 mg/kg of 2-acetylnaphtho[2,3-b]furan-4,9-dione and 100 mg/kg of mefenamic acid According to a schedule in which an administration solution or an administration solution without an agent was continuously administered for five days and then medication was ceased for two days and continuous administration for five days was carried out again, it was orally administered one time a day. The major axis and the minor axis of a tumor mass were measured by vernier calipers at 2 to 5 day intervals, and the tumor volume was calculated by substituting them into the formula: (minor axis)^2×(major axis)/2.

[9] = Concentration in plasma and tumor by combination with mefenamic acid in tumor-bearing mice; type: in vivo, mouse; settings: oral single dose
Description: The following administration solution (1), (2) or (3) was orally administered to 7 week aged mice (BALB/cAnNCrlCrlj, female, Charles River Laboratories Japan, Inc.) in a single time.
(1) 100 mg/kg of 2-acetylnaphtho[2,3-b]furan-4,9-dione
(2) 100 mg/kg of 2-acetylnaphtho[2,3-b]furan-4,9-dione and 100 mg/kg of mefenamic acid
(3) 100 mg/kg of 2-acetylnaphtho[2,3-b]furan-4,9-dione and 300 mg/kg of mefenamic acid
The blood was collected 2, 6, and 16 hours after the administration, and the blood was centrifuged to give plasma. Methanol was added to the plasma such that the final concentration of methanol is 80%, and then it was centrifuged. Further, protein-removing treatment was carried out by filtering through a filter, and then 2-acetylnaphtho[2,3-b]furan-4,9-dione was detected and quantified using LC-MS/MS (API4000, AB SCIEX). Meanwhile, a tumor mass was collected at the same time as the blood collection, 2-acetylnaphtho[2,3-b]furan-4,9-dione in the tumor was detected and quantified.

[10] = Concentration in plasma by combination with sulindac in cancer-bearing mice; type: in vivo, mouse; settings: oral single dose, 100 mg/kg dione with 25 mg/kg sulindac, two hours after administration (FIG. 14)
Description: The following administration solution (1) or (2) was orally administered to 8 week aged mice (BALB/cAnNCrlCrlj, female, Charles River Laboratories Japan, Inc.) in a single time. […] Methanol was added to the plasma such that the final concentration of methanol is 80%, and then it was centrifuged.

Row | SMILES | inhibition of the metabolism of 2-acetylnaphtho[2,3-b]furan-4,9-dione (residual amount vs control) [4] | also measured
1 | CC(=O)c1cc2c(o1)C(=O)c1ccccc1C2=O [2-acetylnaphtho[2,3-b]furan-4,9-dione] |  | metabolism in liver cytosol ([1]; NADPH 1 mmol/L): time-dependently metabolized; metabolite mainly produced in liver cytosol ([1]; NADPH): 2-(1-hydroxyethyl)naphtho[2,3-b]furan-4,9-dione (M1); cell survival rate (A549 cells [2]): ≥ 100%; cell survival rate (H460 cells [3]): ≥ 100%
2 | CC(=O)c1ccc(S(=O)(=O)NC(=O)NC2CCCCC2)cc1 [acetohexamide] | inhibited | 
3 | CCc1oc2ccccc2c1C(=O)c1cc(Br)c(O)c(Br)c1 [benzbromarone] | inhibited | 
4 | CN(C)CCCN1c2ccccc2Sc2ccc(Cl)cc21 [chlorpromazine] | inhibited | 
5 | CC1CC2C3CCC4=CC(=O)C=CC4(C)C3(F)C(=O)CC2(C)C1(O)C(=O)CCl (centres unmarked) [clobetasone] | inhibited | 
6 | Nc1ccc(S(=O)(=O)c2ccc(N)cc2)cc1 [dapsone] | inhibited | 
7 | COc1ccc(Cl)cc1C(=O)NCCc1ccc(S(=O)(=O)NC(=O)NC2CCCCC2)cc1 [glibenclamide] | inhibited | 
8 | CCC1=C(C)CN(C(=O)NCCc2ccc(S(=O)(=O)NC(=O)N[C@H]3CC[C@H](C)CC3)cc2)C1=O [glimepiride] | inhibited | 
9 | CC(=O)N1CCN(c2ccc(OCC3COC(Cn4ccnc4)(c4ccc(Cl)cc4Cl)O3)cc2)CC1 (centres unmarked) [ketoconazole] | inhibited | 
10 | CCCCc1nc(Cl)c(CO)n1Cc1ccc(-c2ccccc2-c2nn[nH]n2)cc1 [losartan] | inhibited | 
11 | CC(=O)O[C@]1(C(C)=O)CC[C@H]2[C@@H]3C[C@H](C)C4=CC(=O)CC[C@]4(C)[C@H]3CC[C@@]21C [medroxyprogesterone 17-acetate] |  | inhibition of the metabolism of 2-acetylnaphtho[2,3-b]furan-4,9-dione [7]: more strongly inhibited than quercitrin
12 | O=C1OC(c2ccc(O)cc2)(c2ccc(O)cc2)c2ccccc21 [phenolphthalein] |  | inhibition of the metabolism of 2-acetylnaphtho[2,3-b]furan-4,9-dione [7]: more strongly inhibited than quercitrin

Further lines, with some results ahead:

Row | inhibition of the metabolism of 2-acetylnaphtho[2,3-b]furan-4,9-dione (residual amount vs control) [4] | SMILES | also measured
13 | inhibited | C[C@H]1C[C@H]2[C@@H]3CCC4=CC(=O)C=C[C@]4(C)[C@@]3(F)[C@@H](O)C[C@]2(C)[C@@]1(O)C(=O)CCl [clobetasol] | 
14 | inhibited | C#C[C@]1(O)CC[C@H]2[C@@H]3CCc4cc(O)ccc4[C@H]3CC[C@@]21C [ethynyl estradiol] | 
15 | inhibited | O=C(O)c1ccccc1Nc1cccc(C(F)(F)F)c1 [flufenamic acid] | intracellular concentration of 2-acetylnaphtho[2,3-b]furan-4,9-dione in the presence of the metabolic inhibitor (H460 cells [5]): increased; intracellular concentration of 2-acetylnaphtho[2,3-b]furan-4,9-dione in the presence of the metabolic inhibitor (A549 cells [6]): increased
16 | inhibited | CC(C(O)c1ccc(O)cc1)N1CCC(Cc2ccccc2)CC1 (centres unmarked) [ifenprodil] | 
17 | inhibited | Cc1ccc(Cl)c(Nc2ccccc2C(=O)O)c1Cl [meclofenamic acid] | 
18 | inhibited | Cc1cccc(Nc2ccccc2C(=O)O)c1C [mefenamic acid] | intracellular concentration of 2-acetylnaphtho[2,3-b]furan-4,9-dione in the presence of the metabolic inhibitor (H460 cells [5]): increased; anti-tumor activity as a single agent (A549 cells [8]; 100 mg/kg oral once a day, 5 days on/2 off/5 on): no anti-tumor activity; anti-tumor activity of the combination with 2-acetylnaphtho[2,3-b]furan-4,9-dione vs the dione as a single agent (A549 cells [8]; 30 or 100 mg/kg dione and 100 mg/kg mefenamic acid oral once a day): significantly improved; intracellular concentration of 2-acetylnaphtho[2,3-b]furan-4,9-dione in the presence of the metabolic inhibitor (A549 cells [6]): increased; concentration of 2-acetylnaphtho[2,3-b]furan-4,9-dione in tumor, combination vs single agent group ([9]; 100 mg/kg dione with 300 mg/kg of mefenamic acid (FIG. 13)): higher; concentration of 2-acetylnaphtho[2,3-b]furan-4,9-dione in plasma, combination vs single agent administration ([9]; 100 mg/kg dione with 100 or 300 mg/kg mefenamic acid, 2, 6, 16 hours (FIG. 13)): higher
19 | inhibited | OCc1cc(C(O)CNCCCCCCOCCCCc2ccccc2)ccc1O (centres unmarked) [salmeterol] | 
20 | inhibited | CC1=C(CC(=O)O)c2cc(F)ccc2/C1=C\c1ccc([S+](C)[O-])cc1 (centres unmarked) [sulindac] | concentration of 2-acetylnaphtho[2,3-b]furan-4,9-dione in plasma, combination vs single agent administration [10]: higher
